In patent US20260184712A1, “Heterocyclic Compounds as ENT Inhibitors and Compounds for Use in the Treatment of Cancers” (iTeos Belgium SA, priority 2022, published 2026):

How the values were obtained:
[1] = molecular target: T1, Human ENT2 (Homo sapiens, UniProt Q14542); test: Adenosine uptake assay, ENT2-mediated transport in MDCKII cells; format: cell-based; conditions: MDCKIIENT2-LV cells, probe adenosine 0.5 μM, pre-incubation 30 min, incubation 10 min
T1 construct: expressed in transfected cells
T1 sequence (Q14542 1-456): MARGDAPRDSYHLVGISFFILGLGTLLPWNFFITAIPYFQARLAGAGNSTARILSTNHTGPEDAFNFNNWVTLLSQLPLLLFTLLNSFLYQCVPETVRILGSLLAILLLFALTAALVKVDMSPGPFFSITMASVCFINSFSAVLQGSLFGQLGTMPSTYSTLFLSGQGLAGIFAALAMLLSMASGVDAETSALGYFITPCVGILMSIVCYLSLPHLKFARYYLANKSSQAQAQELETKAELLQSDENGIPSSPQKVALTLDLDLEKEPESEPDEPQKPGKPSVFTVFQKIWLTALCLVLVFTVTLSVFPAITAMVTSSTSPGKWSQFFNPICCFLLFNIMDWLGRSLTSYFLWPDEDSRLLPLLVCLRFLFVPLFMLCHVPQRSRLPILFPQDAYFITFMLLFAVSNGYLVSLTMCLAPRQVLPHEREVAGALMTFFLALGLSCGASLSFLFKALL
Experimental: The goal of this study was to determine the potency and selectivity of ENT1 inhibitors by measuring ENT1 and ENT2-mediated transport using an in vitro cellular uptake assay.
Human ENT1 and ENT2 transporters were stably expressed in Madin-Darby Canine Kidney II (MDCKII) cells via transduction. Cell lines overexpressing the relevant ENT1 or ENT2 molecules were preincubated with a dose range of the relevant compound for 30 minutes before introduction of the specific substrate at the concentration indicated in the Table assay parameters below. The transporter assay was conducted for the time specified in the Table assay parameters before the specific uptake of the substrate into the cells was quantified. Specific uptake was determined by comparing the uptake from the cells treated with the relevant compounds and the uptake by cells not overexpressing the transporter in question.
Specific uptake for each concentration of the test sample was normalized to the DMSO control value to generate a relative accumulation value (or relative transporter activity). Data were plotted against the log molar concentration of the test reagent used. IC50 values were generated with Prism version 9.4.1 and the following function: log(inhibitor) vs. response—Variable slope (four parameters).

[2] = test system: stimulated primary human T cells; test: T cell proliferation assay, Condition B (X-VIVO15, 2% HSA and 0.1% AAG); format: cell-based; conditions: Condition B: X-VIVO15 medium containing HSA and α1-Acid Glycoprotein, anti-CD3/anti-CD28 beads, ATP, 4 days, CFSE-lo T cells
Outline: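 CFSE-labelled CD3+ T cells from healthy donors (2×10^4/well) in X-VIVO15 with 2% HSA and 0.1% AAG were stimulated with anti-CD3/CD28 beads. After 30 min pre-incubation with inhibitor, ATP was added and cells were cultured 4 days at 37° C. Flow cytometry gave % CFSE^lo cells, with IC50/IC90 and pICF from curve fits.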

[3] = test system: stimulated primary human T cells; test: T cell proliferation assay, Condition A (X-VIVO15); format: cell-based; conditions: Condition A: X-VIVO15 medium, anti-CD3/anti-CD28 beads, ATP, 4 days, CFSE-lo T cells
Outline: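 CFSE-labelled human CD3+ T cells (2×10^4/well) in serum-free X-VIVO15 were activated with anti-CD3/CD28 beads (1 bead:2 cells), pre-incubated 30 min with inhibitor, then cultured with 100 uM ATP for 4 days at 37 °C. Flow cytometry measured %CFSE^lo cells, and IC50/IC90 came from log-concentration curve fits.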

[4] = molecular target: T2, human ENT1 (Homo sapiens, UniProt Q99808); test: ENT1 binding assay (competition with Sahenta-DY647 on JAR cells); conditions: competition with SAHENTA-DY647 binding; IC50 categorized; read-out: Binding Assay IC50
T2 construct: JAR cells expressing ENT1 were purchased from ATCC; host or cells: JAR cells
T2 sequence (Q99808 1-456): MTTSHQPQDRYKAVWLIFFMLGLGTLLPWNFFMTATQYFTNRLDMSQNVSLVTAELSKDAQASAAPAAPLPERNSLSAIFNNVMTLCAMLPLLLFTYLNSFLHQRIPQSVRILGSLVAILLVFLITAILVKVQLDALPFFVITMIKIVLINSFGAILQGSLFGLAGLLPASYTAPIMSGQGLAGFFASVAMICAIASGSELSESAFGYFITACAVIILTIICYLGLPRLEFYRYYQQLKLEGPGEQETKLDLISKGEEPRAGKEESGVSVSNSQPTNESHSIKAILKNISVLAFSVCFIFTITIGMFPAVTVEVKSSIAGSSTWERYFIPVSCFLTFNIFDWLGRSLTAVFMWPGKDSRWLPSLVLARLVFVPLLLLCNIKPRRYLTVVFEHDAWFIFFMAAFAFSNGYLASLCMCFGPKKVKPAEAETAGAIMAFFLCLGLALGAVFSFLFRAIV
Outline: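 Fluorescent-tracer displacement: compound incubated with JAR cells 30 min, 4 °C, before Sahenta-DY647 (100 nM) for another 30 min, 4 °C, in Hepes-buffered HBSS with 0.1% BSA. Bound tracer read at 670 nm after washes; IC50 from four-parameter fit, reported as mean of pIC50 values.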

IC50 [4] | SMILES | IC50 [1] | IC50 [2] | IC50 [3] | IC50 ([2]; Homo sapiens, T-cell, 96 h) | IC50 ([3]; Homo sapiens, T-cell, 96 h)
– | O=[N+]([O-])c1ccc(CSc2ncnc3c2ncn3[C@@H]2O[C@H](CO)[C@@H](O)[C@H]2O)cc1 [NBMPR, reference compound] | > 1000 nM | 20 to 500 nM | 1 to 20 nM | – | –
– | COc1cc(C(=O)OCCCN2CCCN(CCCOC(=O)c3cc(OC)c(OC)c(OC)c3)CC2)cc(OC)c1OC [Dilazep, dilazep, reference compound] | > 1000 nM | – | – | 20 to 500 nM | 1 to 20 nM
1 to 20 nM | C[C@H]1O[C@@H](n2c(NCc3cnn(C)c3)nc3c(OCc4ccc(C#N)cc4)ncnc32)[C@H](O)[C@@H]1O [Compound 65] | – | – | – | 20 to 500 nM | 1 to 20 nM
